System: lower esophageal sphincter (LES)
Experiment: Determination of LES pressure in the anesthetized dog
Format: in vivo, dogs
Details: for ED20: Canis lupus familiaris, iv, Effective Dose 20 for increase in resting LES pressure, mean of individual ED20 values (N>=3), read-out: ED20 mcg/kg, i.v.
Experimental: Method for Determination of LES Pressure in the Anesthetized Dog
Mongrel or beagle dogs, male and female, are anesthetized using sodium pentobarbital (35.0 mg/kg., I.V.). Sodium pentobarbital is then continuously infused (approximatemated 6.0 mg/kg/hr) to maintain deep anesthesia. Blood pressure is monitored via a catheter surgically implanted into the femoral artery and attached to a Gould's P231D transducer. A catheter is also implanted into the femoral vein to administer test drugs. Respiration is maintained by an endotracheal tube attached to a respirator. A continuously perfused manometric catheter system including a Dent sleeve to measure sphincter pressure (Dent, Gastroenterology 7l: 263-267, l976) is inserted into the esophagus and positioned so that intraluminal pressure is recorded from the body of the esophagus, the lower esophageal sphincter (LES) and the fundus of the stomach. The Dent sleeve catheter is perfused at a rate of 0.5 ml of water per minute for each lumen of the catheter by using an Arndorfer Hydraulic Capillary Infusion System. A cannula is implanted into the gastric antrum to allow drainage of the perfusate solution and prevent intestinal distension. Continuous tracings of esophageal, LES and fundus pressure are monitored on a Grass Polygraph (Model 7D). Correct positioning of the Dent sleeve is verified by noting a high pressure zone at the LES and by administration of an intravenous dose of 5-HT (usually l0-l5 mcg/kg) which contracts the LES while having little or no recordable effect on either the body of the esophagus or the fundus. After verification of placement of the sleeve, the animal is allowed to stabilize for approximately 30 minutes.
Compounds are administered intravenously, intraduodenally or intragastrically. In most cases, succeeding doses of the same or different compounds are given only after the LES pressure has returned to approximate predosing baseline values. In all cases, the magnitude of change in LES pressure is determined from the baseline pressure immediately prior to each treatment to the maximum pressure during treatment. Since the compounds used usually produce an immediate effect on LES pressure, no pretreatment time prior to measurement is necessary during this testing.
Direct assay techniques are used to estimate an Effective Dose 20 (ED₂₀) for the test compound in individual animals. The mean ED₂₀ and 95% confidence limits are determined using the individual ED₂₀ values from a group of animals (N=≧3) that received the same treatment.

SMILES	ED20 [mg/kg]	change in LES pressure (baseline to maximum during treatment) (at 250 (mcg/kg per column head), i.g.)
Oc1cc(Cl)c2c(c1)C(c1ccccc1)CNCC2 (stereo not drawn) [compound 1, 6-Chloro-8-hydroxy-l-phenyl-2,3,4,5-tetrahydro-lH-3-benzazepine]	0.445	
CS(=O)(=O)c1cc2c(cc1O)CCNCC2c1ccccc1 (stereo not drawn) [compound 2, 7-Hydroxy-8-methylsulfonyl-l-phenyl-2,3,4,5-tetrahydro-lH-3-benzazepine]	0.317	
CS(=O)(=O)c1cc2c(cc1O)C(c1ccccc1)CNCC2 (stereo not drawn) [compound 3, 8-Hydroxy-7-methylsulfonyl-l-phenyl-2,3,4,5-tetrahydro-lH-3-benzazepine]	0.05	
Oc1cc2c(cc1Br)CCNCC2c1ccccc1 (stereo not drawn) [compound 4, 7-Bromo-8-hydroxy-l-phenyl-2,3,4,5-tetrahydro-lH-3-benzazepine]	0.016	
Cc1cc2c(cc1O)C(c1ccccc1)CNCC2 (stereo not drawn) [compound 5, 8-Hydroxy-7-methyl-l-phenyl-2,3,4,5-tetrahydro-lH-3-benzazepine]	0.026	
CSc1cc2c(cc1O)C(c1ccccc1)CNCC2 (stereo not drawn) [compound 6, 8-hydroxy-7-methylthio-l-phenyl-2,3,4,5-tetrahydro-lH-3-benzazepine]	0.017	
Oc1cc2c(cc1C(F)(F)F)CCNCC2c1ccccc1 (stereo not drawn) [compound 7, 8-Hydroxy-l-phenyl-7-trifluoromethyl-2,3,4,5-tetrahydro-lH-3-benzazepine]	0.02	
COc1cc2c(cc1Br)CCN(C)CC2c1ccccc1 (stereo not drawn) [compound 8, 7-Bromo-8-methoxy-3-methyl-l-phenyl-2,3,4,5-tetrahydro-lH-3-benzazepine]	0.079	
CN1CCc2cc(Cl)c(Cl)cc2C(c2ccccc2)C1 (stereo not shown) [compound 9]	0.623	
Oc1cc2c(cc1O)C(c1ccccc1)CNCC2 (stereo not drawn) [compound 10, 7,8-dihydroxy-l-phenyl-2,3,4,5-tetrahydro-lH-3-benzazepine]	0.735	
Cc1cc2c(cc1O)C(c1ccc(O)cc1)CNCC2 (stereo not drawn) [compound 11, 8-Hydroxy-l-(4-hydroxyphenyl)-7-methyl-2,3,4,5-tetrahydro-lH-3-benzazepine]	0.044	
COc1cc2c(cc1S(C)(=O)=O)CCNCC2c1ccccc1 (stereo not drawn) [compound 12, 8-Methoxy-7-methylsulfonyl-l-phenyl-2,3,4,5-tetrahydro-lH-3-benzazepine]		15 mm Hg at 250 (i.g.)
COCc1cc2c(cc1O)C(c1ccccc1)CNCC2 (stereo not drawn) [compound 13, 8-hydroxy-7-methoxymethyl-l-phenyl-2,3,4,5-tetrahydro-lH-3-benzazepine]	< 0.05	
OCc1cc2c(cc1O)C(c1ccccc1)CNCC2 (stereo not drawn) [compound 14, 8-hydroxy-7-hydroxymethyl-l-phenyl-2,3,4,5-tetrahydro-lH-3-benzazepine]	0.1	
CS(=O)(=O)Nc1cc2c(cc1O)CCNCC2c1ccccc1 (stereo not drawn) [compound 15, 7-hydroxy-8-methanesulfonamido-l-phenyl-2,3,4,5-tetrahydro-lH-3-benzazepine]	0.5	
CC(=O)Nc1cc2c(cc1O)C(c1ccccc1)CNCC2 (stereo not drawn) [compound 16, 7-Acetamido-8-hydroxy-l-phenyl-2,3,4,5-tetrahydro-lH-3-benzazepine]	< 2	

Reference: patent publication EP0244088A2, “1-Phenyl-3-benzazepine compounds and medicaments containing these compounds for treating gastrointestinal motility disorders” (SMITHKLINE BECKMAN CORPORATION, priority 1986, dated 1987)
